Measured values reported in patent US9144576B2, “Topical antiviral formulations” (3B Pharmaceuticals, Inc., priority 2008, dated 2015).

Key:
[1] = tested on: HSV-2; experiment: In vitro assay for anti-HSV-2 mRNA activity (QuantiGene Plex 2.0 bDNA) in infected primary Adult Human Dermal Microvascular Endothelial Cells; type: cell-based, HSV type 2; conditions: variable slope fit; for LogIC50 (best-fit value): concentrations in μM, overnight incubation, triplicate
Procedure: (§1) In vitro assays for anti-HSV-1 and anti-HSV-2 mRNA activity are described in Example 1. Confluent Vero cell monolayers were infected with HSV type 1 or HSV type 2 at a multiplicity of infection of 10 and the resultant virus was used to infect primary Adult Human Dermal Microvascular Endothelial Cells for 1 hour; the supernatant was replaced with fresh culture media and then incubated overnight in the presence of various concentrations of acyclovir, 2-deoxy-D-glucose or an equimolar combination of the two compounds. After overnight incubation, the cells were harvested, lysed, and subjected to QuantiGene Plex 2.0 assay (Panomics, Inc., Fremont, Calif.) for quantitative assay of HSV-1 and HSV-2 mRNA. The QuantiGene Plex 2.0 assay combines branched DNA (bDNA) signal amplification and multi-analyte profiling beads (xMAP®) technologies to enable the detection and quantitation of multiple mRNA targets simultaneously. Briefly, confluent Vero cell monolayers were infected with HSV type 1 or HSV type 2 at a multiplicity of infection of 10 and the resultant virus was used to infect primary Adult Human Dermal Microvascular Endothelial Cells for 1 hour and then the supernatant was replaced with fresh culture media and then incubated overnight in the presence of various concentrations of acyclovir, 2-deoxy-D-glucose or an equimolar combination of the two compounds. […], this assay is considered to be a more sensitive and specific assay (bDNA) for the final readout when compared to an ELISA. The ELISA method while easier, can lack specificity to determine the difference between HSV1 and HSV2. The bDNA assay is a hybridization-based method of target-specific RNA quantitation that amplifies signal rather than target RNA, using labeled DNA probes. The QuantiGene Plex 2.0 system utilizes fluorescent microspheres (Capture Beads) as a support to capture specific RNA molecules. The ability to quantify multiple target-specific RNA molecules in a single sample lies in the design of the Probe Sets. […] The resulting fluorescence signal associated with individual Capture Beads is read on a Luminex flow cytometer. Signal is reported as median fluorescence intensity (MFI) and is proportional to the number of target RNA molecules present in the sample. […]

[2] = tested on: HSV-1; experiment: In vitro assay for anti-HSV-1 mRNA activity (QuantiGene Plex 2.0 bDNA) in infected primary Adult Human Dermal Microvascular Endothelial Cells; type: cell-based, HSV type 1; conditions: variable slope fit; for LogIC50 (best-fit value): concentrations in μM, overnight incubation, triplicate
Procedure: as §1

[3] = topical versus oral; cited from earlier work

| Structure (SMILES) | HillSlope (best-fit value) [1] | LogIC50 (best-fit value) [1] | HillSlope (best-fit value) [2] | LogIC50 (best-fit value) [2] | drug concentration in the skin after local application, lower than after given orally [3] |
| --- | --- | --- | --- | --- | --- |
| O=CC[C@@H](O)[C@H](O)[C@H](O)CO [2 Deoxy D glucose, 2-deoxy-D-glucose] | −3.957 | 0.9029 | −2.395 | 1.32 |  |
| Nc1nc2c(ncn2COCCO)c(=O)[nH]1 [Acyclovir, 9-(2-hydroxyethoxymethyl)guanine] | −1.113 | 0.2805 | −1.108 | 0.2509 | 2-3 times |
